Test results reported in patent US8653024B2, “Use of AMPs for treatment of UTI/cystitis” (Adenium Biotech Aps, priority 2009, dated 2014).
“And” between values parts separate entries of the source, which are not always exact repeats. Equal values may be shown once. “Also recorded” adds a separate entry of the source.

Tests used:
[1] = tested on: Escherichia coli DSA 443; assay: Murine urinary tract infection model, Example 2 (carried out as described in Example 1); type: in vivo; details: for Mean colony counts ± SEM, bladder day 3 / Mean colony counts ± SEM, kidney day 3 / Mean colony counts ± SEM, urine day 1 / Mean colony counts ± SEM, urine day 3: mice; for Mean colony counts ± SEM, bladder day 3 / Mean colony counts ± SEM, kidney day 3 / Mean colony counts ± SEM, urine day 3: day 3 post infection; for Mean colony counts ± SEM, urine day 1: day 1 post infection, before first treatment; for Bacterial reduction in the kidneys compared to vehicle treatment / Bacterial reduction in the urine compared to vehicle treatment / Bacterial reduction in the bladder compared to vehicle treatment: 10 mg/kg i.v. BID; for Bacterial reduction in the kidneys compared to vehicle treatment: p<0.05; for Effect of treatment compared to Meropenem: 10 mg/kg vs 40 mg/kg Meropenem; for Bacterial reduction in the urine compared to vehicle treatment / Bacterial reduction in the bladder compared to vehicle treatment: after 2 days of treatment; for Bacterial reduction in the urine compared to vehicle treatment: p<0.001; for Bacterial reduction in the bladder compared to vehicle treatment: p<0.01
Method: The efficacy of Arenicin administered BID i.v. days 1 and 2 post infection at a rate of 10 ml/kg to female OF-1 mice (14/group), at a dosage of 10 mg/kg, was assessed against E. coli DSA 443. Treatment with 40 mg/kg Meropenem was included as a positive control and treatment with vehicle was included as a negative control.
Starting on day −4 before inoculation, mice were given drinking water containing 5% glucose. On day 0, the bladder of each mouse was emptied of urine, and each mouse was inoculated with 50 microliters bacteria suspension (E. coli DSA 443 9.3 log10 CFU/ml) via a catheter in the urethra into the bladder.
Urine was sampled from all mice at 24 hours post infection, before the first treatment, and colony counts were determined. 48 and 72 hours post infection, urine was sampled from all mice and kept at room temperature until analyzed. CFU was determined in urine samples within 2-3 hours after sampling. On day 3, mice were sacrificed by cervical dislocation and the bladders and kidneys were collected and stored at −80° C. until analyses. Frozen organs were thawed and homogenized with steel beads on a tissue lyser. All samples, urine, kidney and bladder, were 10 fold diluted in saline and 20 microliter spots were applied on blue agar plates in duplicates. Also undiluted urine (100 microliters if possible) was spread on a separate agar plate to determine the colony counts lowest possible detection level (10 CFU/ml). All agar plates were incubated 18-22 hrs at 35° C. in ambient air.
The CFU numbers are log10 transformed before performing calculations to obtain a normal (or closer to normal) distribution. The data are presented below in Table 1 as mean±SEM. Significance levels were calculated with one-way ANOVA, Dunnett's multiple comparison test and are indicated by the stars in the figures.
The experiment was carried out as described in Example 1.
The efficacies of Variant1 and Variant2 (10 mg/kg) (formulated in Ringer acetate pH 6) were investigated following intravenous (i.v.) administration BID day 1 and day 2 post infection with Escherichia coli DSA 443 (clinical isolate, SSI) in a murine Urinary Tract Infection model. Treatment with 40 mg/kg Meropenem was included as a positive control group.

[2] = tested on: Escherichia coli DSA 443; assay: Murine urinary tract infection (UTI) model, Example 1: colony counts in urine, bladder and kidney; type: in vivo; details: for Mean colony counts + SEM, bladder day 3 / Mean colony counts + SEM, kidney day 3 / Mean colony counts + SEM, urine day 1 / Mean colony counts + SEM, urine day 2 / Mean colony counts + SEM, urine day 3: female OF-1 mice; for Mean colony counts + SEM, urine day 1: day 1 post infection, before first treatment; for Mean colony counts + SEM, urine day 2: day 2 post infection; for Bacterial reduction in the urine compared to vehicle treatment: p<0.001
[3] = 10 mg/kg i.v. BID day 1 and day 2

C[C@@H](O)[C@H]1C(=O)N2C(C(=O)O)=C(S[C@@H]3CN[C@H](C(=O)N(C)C)C3)[C@H](C)[C@H]12 [Meropenem, reference compound]
Mean colony counts ± SEM, bladder day 3 ([1]; 40 mg/kg (positive control)): 3.9 ± 0.2 log10 CFU
Mean colony counts ± SEM, kidney day 3 ([1]; 40 mg/kg (positive control)): 1.8 ± 0.4 log10 CFU
Mean colony counts ± SEM, urine day 1 ([1]; 40 mg/kg group (positive control)): 6.3 ± 1.0 log10 CFU
Mean colony counts ± SEM, urine day 3 ([1]; 40 mg/kg (positive control)): 1.8 ± 0.4 log10 CFU
Bacterial loads in the kidneys compared to vehicle ([2]; 40 mg/kg, day 3 post infection): slightly, but not significantly, reduced
Mean colony counts + SEM, bladder day 3 ([2]; bladder, day 3 post infection, 40 mg/kg (positive control)): 3.9 ± 0.3 log10 CFU
Mean colony counts + SEM, kidney day 3 ([2]; day 3 post infection, 40 mg/kg (positive control)): 1.8 ± 0.3 log10 CFU
Mean colony counts + SEM, urine day 1 ([2]; urine, 40 mg/kg group (positive control)): 7.0 ± 0.4 log10 CFU
Mean colony counts + SEM, urine day 2 ([2]; urine, 40 mg/kg (positive control)): 2.7 ± 0.3 log10 CFU
Mean colony counts + SEM, urine day 3 ([2]; urine, day 3 post infection, 40 mg/kg (positive control)): 2.1 ± 0.3 log10 CFU

Arenicin: antimicrobial polypeptide having the amino acid sequence shown in SEQ ID NO: 1 (GFCWYVCVYRNGVRVCYRRCN; mat_peptide (1)..(21); listed as Arenicola marina)
Effect (CFU reduction) compared to Meropenem ([2]; 10 mg/kg vs 40 mg/kg Meropenem, urine, bladder): comparable to that of Meropenem; also recorded: comparable to the effect of the Meropenem
Bacterial reduction in the urine compared to vehicle treatment ([2]; after 1 day of treatment, 10 mg/kg i.v. BID): significant bacterial reduction
Bacterial reduction in the urine compared to vehicle treatment ([2]; after 2 days of treatment, 10 mg/kg i.v. BID, 10 mg/kg): significantly (p<0.001) reduced the bacterial loads; also recorded: significant bacterial reduction
Bacterial reduction in the bladder compared to vehicle treatment ([2]; after 2 days of treatment, 10 mg/kg i.v. BID, p<0.01, 10 mg/kg): Significant lower (p<0.01) CFU levels; also recorded: significant bacterial reduction
Bacterial reduction in the kidneys compared to vehicle treatment ([2]; day 3 post infection, 10 mg/kg i.v. BID, 10 mg/kg): not significantly lower than the vehicle group; also recorded: slight reduction
Mean colony counts + SEM, bladder day 3 ([2]; bladder, day 3 post infection, 10 mg/kg i.v. BID days 1 and 2, 10 mg/kg): 3.8±0.2 log10 CFU
Mean colony counts + SEM, kidney day 3 ([2]; day 3 post infection, 10 mg/kg i.v. BID days 1 and 2, 10 mg/kg): 1.9±0.3 log10 CFU
Mean colony counts + SEM, urine day 1 ([2]; urine, 10 mg/kg group, 10 mg/kg): 6.9±0.3 log10 CFU
Mean colony counts + SEM, urine day 2 ([2]; urine, after one day of treatment, 10 mg/kg i.v. BID, 10 mg/kg): 3.2±0.5 log10 CFU
Mean colony counts + SEM, urine day 3 ([2]; urine, day 3 post infection, after completed treatment, 10 mg/kg i.v. BID days 1 and 2, 10 mg/kg): 2.3±0.3 log10 CFU and 2.3 ± 0.2 log10 CFU

Variant1: antimicrobial polypeptide of SEQ ID NO: 2; Y5N+Y17H substitution as compared to Arenicin (SEQ ID NO: 1) (GFCWNVCVYRNGVRVCHRRCN)
Bacterial reduction in the kidneys compared to vehicle treatment [1]: significant bacterial reduction
Effect of treatment compared to Meropenem [1]: comparable to the effect of treatment with Meropenem
Bacterial reduction in the urine compared to vehicle treatment [1]: significant bacterial reduction
Bacterial reduction in the bladder compared to vehicle treatment [1]: significant bacterial reduction
Mean colony counts ± SEM, bladder day 3 [1, 3]: 3.8 ± 0.4 log10 CFU
Mean colony counts ± SEM, kidney day 3 [1, 3]: 1.3 ± 0.2 log10 CFU
Mean colony counts ± SEM, urine day 1 ([1]; 10 mg/kg group): 7.1 ± 0.8 log10 CFU
Mean colony counts ± SEM, urine day 3 [1, 3]: 2.6 ± 0.4 log10 CFU

Variant2: antimicrobial polypeptide of SEQ ID NO: 3; W4G+Y5H substitution as compared to Arenicin (GFCGHVCVYRNGVRVCYRRCN)
Bacterial reduction in the kidneys compared to vehicle treatment [1]: significant bacterial reduction
Effect of treatment compared to Meropenem [1]: comparable to the effect of treatment with Meropenem
Bacterial reduction in the urine compared to vehicle treatment [1]: significant bacterial reduction
Bacterial reduction in the bladder compared to vehicle treatment [1]: significant bacterial reduction
Mean colony counts ± SEM, bladder day 3 [1, 3]: 3.7 ± 0.5 log10 CFU
Mean colony counts ± SEM, kidney day 3 [1, 3]: 1.5 ± 0.4 log10 CFU
Mean colony counts ± SEM, urine day 1 ([1]; 10 mg/kg group): 5.7 ± 1.0 log10 CFU
Mean colony counts ± SEM, urine day 3 [1, 3]: 3.2 ± 0.5 log10 CFU
